Data on 1 compound can be found in patent publication US4359531A, “Production of isomaltulose” (Talres Development (N.A.) N.V., priority 1979, dated 1982).

This test deals with isomaltulose-synthesising activity of the immobilized cells. The test is described as follows: Effect of chloramphenicol in the sucrose substrate on immobilized cells. The following applies: 0.1 g/l in 55% (w/v) sucrose. In kind it is cell-based, Erwinia rhapontici. An excerpt:
This hypothesis was confirmed when 0.1 g/l of chloramphenicol, which inhibits protein synthesis, was included in the 55% (w/v) sucrose used as substrate.

For `O=C(N[C@H](CO)[C@H](O)c1ccc([N+](=O)[O-])cc1)C(Cl)Cl` [chloramphenicol], the “isomaltulose-synthesising activity in presence of chloramphenicol” value is given as “unaffected”. In addition, under “even when nutrients supplied”, the “cell division in presence of chloramphenicol” value is “no cell division took place”.
